Assay [1] addresses Sodium-dependent serotonin transporter (Rattus norvegicus, UniProt P31652). Description: Inhibitory constant against reuptake of [3H]5-HT at serotonin transporter of rat […]. The format is tissue-based.
Assay [2] concerns the target T1, Norepinephrine transporter (Rattus norvegicus, UniProt Q9WTR4). Kind of assay: Inhibitory constant against reuptake of [3H]NE at norepinephrine transporter of rat parietal-occipital cortex.
The target in assay [3] is Sodium-dependent dopamine transporter (Rattus norvegicus, UniProt P23977). Description: Inhibitory constant against reuptake of [3H]-DA at dopamine transporter of rat striatal membranes. The format is cell membranes, Membrane.
Sequence of Sodium-dependent dopamine transporter (P23977 whole entry): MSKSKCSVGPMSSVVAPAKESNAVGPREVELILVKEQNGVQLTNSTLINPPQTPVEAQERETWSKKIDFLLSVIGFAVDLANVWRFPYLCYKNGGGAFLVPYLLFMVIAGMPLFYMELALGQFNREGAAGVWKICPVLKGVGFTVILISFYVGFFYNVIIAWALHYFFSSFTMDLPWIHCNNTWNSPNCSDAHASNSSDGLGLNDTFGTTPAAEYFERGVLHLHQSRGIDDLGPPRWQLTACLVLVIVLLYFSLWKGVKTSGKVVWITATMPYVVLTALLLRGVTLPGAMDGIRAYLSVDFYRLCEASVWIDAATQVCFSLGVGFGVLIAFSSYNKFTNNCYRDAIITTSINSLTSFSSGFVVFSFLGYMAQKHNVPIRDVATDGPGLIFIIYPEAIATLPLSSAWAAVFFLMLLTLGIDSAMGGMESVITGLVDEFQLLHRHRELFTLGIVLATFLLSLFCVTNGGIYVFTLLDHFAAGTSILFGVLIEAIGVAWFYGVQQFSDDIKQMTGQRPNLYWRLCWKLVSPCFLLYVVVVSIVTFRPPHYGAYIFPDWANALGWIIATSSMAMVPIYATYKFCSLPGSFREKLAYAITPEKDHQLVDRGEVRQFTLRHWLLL
The target in assay [4] is Muscarinic acetylcholine receptor. Description: Inhibition of [3H]QNB binding to muscarinic receptor of rat cortex.
Assay [5] addresses T1, Norepinephrine transporter. Kind of assay: Inhibitory constant for [3H]NE reuptake at norepinephrine transporter of rat parietal-occipital cortex.

Sequence of Sodium-dependent serotonin transporter (P31652 whole entry): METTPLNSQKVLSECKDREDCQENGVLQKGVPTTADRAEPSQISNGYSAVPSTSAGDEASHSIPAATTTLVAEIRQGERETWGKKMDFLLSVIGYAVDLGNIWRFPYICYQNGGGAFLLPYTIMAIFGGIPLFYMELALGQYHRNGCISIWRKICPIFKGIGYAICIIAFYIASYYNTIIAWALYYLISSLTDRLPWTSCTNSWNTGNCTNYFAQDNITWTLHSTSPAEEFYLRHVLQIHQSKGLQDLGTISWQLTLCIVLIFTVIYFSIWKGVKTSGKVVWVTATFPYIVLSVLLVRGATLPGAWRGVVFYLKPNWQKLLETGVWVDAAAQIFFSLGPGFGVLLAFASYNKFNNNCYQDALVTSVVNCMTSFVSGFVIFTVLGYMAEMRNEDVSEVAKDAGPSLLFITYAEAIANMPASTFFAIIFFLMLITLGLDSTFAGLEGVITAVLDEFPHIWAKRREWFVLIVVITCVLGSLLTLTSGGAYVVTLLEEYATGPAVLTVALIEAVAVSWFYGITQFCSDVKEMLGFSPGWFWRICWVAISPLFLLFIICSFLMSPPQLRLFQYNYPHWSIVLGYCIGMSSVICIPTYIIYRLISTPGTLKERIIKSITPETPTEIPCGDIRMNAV
T1 sequence (Q9WTR4 whole entry): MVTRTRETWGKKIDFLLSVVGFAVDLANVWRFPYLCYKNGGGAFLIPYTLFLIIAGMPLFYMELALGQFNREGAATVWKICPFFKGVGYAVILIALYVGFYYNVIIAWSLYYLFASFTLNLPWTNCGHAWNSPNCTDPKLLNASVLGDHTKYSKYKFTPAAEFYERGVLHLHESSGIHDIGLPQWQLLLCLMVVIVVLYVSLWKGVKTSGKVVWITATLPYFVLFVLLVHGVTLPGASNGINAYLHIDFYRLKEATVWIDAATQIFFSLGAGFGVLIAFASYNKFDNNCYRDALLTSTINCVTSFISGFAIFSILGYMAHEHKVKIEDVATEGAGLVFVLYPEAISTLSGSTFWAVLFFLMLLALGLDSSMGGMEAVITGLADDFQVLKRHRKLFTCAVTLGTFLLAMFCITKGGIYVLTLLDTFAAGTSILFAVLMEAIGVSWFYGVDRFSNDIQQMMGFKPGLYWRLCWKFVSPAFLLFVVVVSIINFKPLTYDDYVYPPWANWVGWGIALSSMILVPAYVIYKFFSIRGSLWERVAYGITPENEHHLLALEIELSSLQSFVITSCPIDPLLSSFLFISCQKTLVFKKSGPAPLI

As for `COC(=O)C1C2CC3CCC1N3C/C2=C\c1ccc(-c2ccccc2F)cc1` (configuration not stated), the Ki (in general, a measure of affinity in units of concentration, obtained from inhibition or displacement) in assay [1] is 466 nM; in assay [2] it was 393 nM; in assay [3], 3400 nM; in assay [4] it was greater than 10000 nM.

With `COC(=O)C1C2CC3CCC1N3C/C2=C\C#Cc1cccc(F)c1` (configuration not stated), the Ki in assay [1] was 317 nM; in assay [2], 2110 nM; in assay [3], greater than 10000 nM; in assay [4] it was 13500 nM.

For the compound `COC(=O)C1C2CC3CCC1N3C/C2=C\C#Cc1ccccc1` (configuration not stated), the Ki in assay [1] was 207 nM; in assay [2], greater than 10000 nM; in assay [3], greater than 10000 nM; in assay [4], 11900 nM.

For the compound `COC(=O)C1C2CC3CCC1N3C/C2=C\C#Cc1ccsc1` (configuration not stated), the Ki was 86 nM in assay [1], 22 nM in assay [5], greater than 10000 nM in assay [3] and 2740 nM in assay [4].

On to `COC(=O)C1C2CC3CCC1N3C/C2=C\C#Cc1ccc(F)c(F)c1` (configuration not stated), for which the Ki in assay [1] was found to be 69 nM; in assay [2], 110 nM; in assay [3], 3150 nM; in assay [4] it was 7090 nM.

For the compound `COC(=O)C1C2CC3CCC1N3C/C2=C\c1ccc(-c2cccc(C(F)(F)F)c2)cc1` (configuration not stated), the Ki turned out to be 1170 nM in assay [1], 8.8 nM in assay [2], 556 nM in assay [3] and 7060 nM in assay [4].

With `COC(=O)C1C2CC3CCC1N3C/C2=C\c1ccc(-c2ccsc2)s1` (configuration not stated), the Ki in assay [1] stood at 32 nM; in assay [2], 5.9 nM; in assay [3], 114 nM; in assay [4], 2140 nM.

In the case of `COC(=O)C1C2CC3CCC1N3C/C2=C\C#Cc1c(F)cccc1F` (configuration not stated), the Ki in assay [1] was 32 nM; in assay [2], 5.3 nM; in assay [3] it was greater than 10000 nM; in assay [4] it was greater than 10000 nM.

For the compound `COC(=O)C1C2CC3CCC1N3C/C2=C\c1ccc(-c2cccc(F)c2)cc1` (configuration not stated), the Ki in assay [1] was 138 nM; in assay [2] it was 5 nM; in assay [3] it was 646 nM; in assay [4], greater than 10000 nM.

As to `COC(=O)C1C2CC3CCC1N3C/C2=C\c1ccc(-c2cccc(OC)c2)cc1` (configuration not stated), the Ki in assay [1] was found to be 346 nM; in assay [2] it was 9.4 nM; in assay [3], 114 nM; in assay [4] it was 4060 nM.

In the case of `COC(=O)C1C2CC3CCC1N3C/C2=C\C#Cc1cc(F)ccc1F` (configuration not stated), the Ki was 215 nM in assay [1], 1720 nM in assay [2], greater than 10000 nM in assay [3] and greater than 10000 nM in assay [4].

As for `COC(=O)C1C2CC[C@@H]3C[C@@H]1/C(=C/c1ccc(-c4cc(F)cc(F)c4)cc1)CN23` (some centres not stated), the Ki in assay [1] amounted to 1.2 nM; in assay [2], 1.3 nM; in assay [3], 228 nM; in assay [4], 2830 nM.

Regarding `COC(=O)C1C2CC[C@@H]3C[C@@H]1/C(=C/c1ccc(-c4ccc(F)c(F)c4)cc1)CN23` (some centres not stated), the Ki in assay [1] stood at 295 nM; in assay [2], 0.8 nM; in assay [3], 106 nM; in assay [4], 3400 nM.

`COC(=O)C1C2CC3CCC1N3C/C2=C\c1ccc(-c2ccc(SC)cc2)s1` (configuration not stated) returned a Ki in assay [4] greater than 10000 nM.

Consider `COC(=O)C1C2CC3CCC1N3C/C2=C\c1ccc(-c2ccc(SC)cc2)cc1` (configuration not stated), for which the Ki in assay [1] was 1080 nM; in assay [2], 62 nM; in assay [3], 1050 nM; in assay [4] it was greater than 10000 nM.

Turning to `COC(=O)C1C2CC3CCC1N3C/C2=C\C#Cc1cccs1` (configuration not stated), the Ki is 142 nM in assay [1], 1570 nM in assay [2], greater than 10000 nM in assay [3] and 13900 nM in assay [4].

As for `COC(=O)C1C2CC3CCC1N3C/C2=C\C#Cc1ccc(C)c(F)c1` (configuration not stated), the Ki in assay [1] is 914 nM; in assay [2], 52 nM; in assay [3], 7070 nM; in assay [4] it was greater than 10000 nM.

In the case of `COC(=O)C1C2CC3CCC1N3C/C2=C\c1ccc(-c2ccccc2OC)cc1` (configuration not stated), the Ki in assay [1] was 1340 nM; in assay [2], 6.5 nM; in assay [3], 787 nM; in assay [4], greater than 10000 nM.

`COC(=O)C1C2CC3CCC1N3C/C2=C\C#Cc1ccc(F)cc1` (configuration not stated): the Ki in assay [1] was 17 nM; in assay [2] it was 104 nM; in assay [3], greater than 10000 nM; in assay [4], 15100 nM.

On to `COC(=O)C1C2CC3CCC1N3C/C2=C\c1ccc(-c2ccc(F)cc2)cc1` (configuration not stated), for which the Ki is 1390 nM in assay [1], 53 nM in assay [2], 161 nM in assay [3] and 1060 nM in assay [4].

(Values after ChEMBL document CHEMBL1145240, “Discovery of novel conformationally constrained tropane-based biaryl and arylacetylene ligands as potent and selective norepinephrine transporter inhibitors and potential antidepressants” (Bioorg Med Chem Lett, 2005).)
